Columns and labels:
[1] = test system: MCF-7 cells; assay: Breast cancer cell viability assay (MCF7, CellTiter-Glo); conditions: for MCF7 Viability Assay: % Viability relative to Fulvestrant: 5 days' compound exposure; for IC50: read-out: MCF7 Viability Assay: IC50, 5 days' compound exposure
[2] = target: ER-α (Homo sapiens (Human), UniProt P03372); assay: Breast cancer cell ER-α In-Cell Western assay (SP1); assay type: cell-based; conditions: MCF7 cells, 4 hours post compound addition
Procedure: MCF7 cells were trypsinized and washed twice in Phenol Red Free RPMI containing 5% Charcoal Dextran Stripped serum with 20 mM HEPES and NEAA, then adjusted to a concentration of 200,000 cells per mL with the same medium. Next, 16 μL of the cell suspension (3200 cells) was added to each well of a poly-D-lysine coated 384 well plate, and the cells were incubated at 37° C. over 4 days to allow the cells to adhere and grow. […] At 4 hours post compound addition, the cells were fixed by adding 16 μL of 30% formalin to the 32 μL of cells and compound (10% formalin final concentration) for 20 minutes. Cells were then washed twice with PBS Tween 0.1% and then permeabilized in PBS 0.1% Triton (50 μl/well) for additional 15 minutes. The PBS 0.1% triton was decanted, and the cells were washed: LI-COR blocking buffer (50 μL/well) was added, the plate was spun at 3000 rpm, and then the blocking buffer was decanted. Additional LI-COR blocking buffer (50 μL/well) was added, and the cells were incubated overnight at 4° C. The blocking buffer was decanted, and the cells were incubated overnight at 4° C. with SP1 (Thermo Scientific) anti-ER rabbit monoclonal antibody diluted 1:1000 in LI-COR blocking buffer/0.1% Tween-20. Wells which were treated with blocking buffer with Tween but no antibody were used as a background control. Wells were washed twice with PBS Tween 0.1% to remove free SP1 antibodies, and the cells were incubated at room temp for 60-90 minutes in LI-COR goat anti-rabbit IRDye™ 800CW (1:1000) and DRAQ5 DNA dye (1:10000 of 5 mM stock solution) diluted in LI-COR blocking buffer containing 0.1% Tween-20 and 0.01% SDS. Cells were then washed with 0.1% Tween-20/PBS three times. Plates were scanned on a LI-COR Odyssey infrared imaging system. Integrated intensities in the 800 nm channel and 700 nm channel were measured to determine levels of ER-α and DNA respectively. Percent ER levels were determined as follows: (Integrated intensity 800 nm sample/integrated intensity 700 nm sample)/(Integrated intensity 800 nm untreated cells/integrated intensity 700 nm untreated cells)×100=% ER-α levels.

[3] = test system: tamoxifen resistant MCF-7 tumors; assay: Breast cancer model: xenograft assay (MCF-7 derivative, tamoxifen resistant); assay type: in vivo; conditions: female nu/nu mice
Procedure: Female nu/nu mice (with supplemental 17-β Estradiol pellets; 0.72 mg; 60 day slow release) bearing MCF-7 tumors (mean tumor volume 200 mm^3) were treated with Tamoxifen (citrate) by oral gavage. Tumor volume (length×width^2/2) and body weight were monitored twice weekly. Following a significant anti-tumor response in which tumor volume remained static, evident tumor growth was first observed at approximately 100 days of treatment. At 120 days of treatment, tamoxifen dose was increased. Rapidly growing tumors were deemed tamoxifen resistant and selected for in vivo passage into new host animals. Tumor Fragments (˜100 mm^3/animal) from the tamoxifen resistant tumors were subcutaneously implanted into the right flank of female nu/nu mice (with 17-β Estradiol pellets (0.72 mg; 60 day slow release)). Passaged tumors were maintained under constant Tamoxifen selection, and Tumor volume (length×width^2/2) was monitored weekly. When tumor volume reached ˜150-250 mm^3, animals were randomized into treatment groups (mean tumor volume 200 mm^3) and tamoxifen treatment was terminated (except for a tamoxifen control arm). Animals were treated with Vehicle or Compound daily for 4 weeks. Tumor volume and body weight were monitored twice weekly for the duration of the study. At the conclusion of the treatment period; plasma and tumor samples were taken for pharmacokinetic and pharmacodynamic analyses, respectively.

Chain of ER-α (P03372 whole entry): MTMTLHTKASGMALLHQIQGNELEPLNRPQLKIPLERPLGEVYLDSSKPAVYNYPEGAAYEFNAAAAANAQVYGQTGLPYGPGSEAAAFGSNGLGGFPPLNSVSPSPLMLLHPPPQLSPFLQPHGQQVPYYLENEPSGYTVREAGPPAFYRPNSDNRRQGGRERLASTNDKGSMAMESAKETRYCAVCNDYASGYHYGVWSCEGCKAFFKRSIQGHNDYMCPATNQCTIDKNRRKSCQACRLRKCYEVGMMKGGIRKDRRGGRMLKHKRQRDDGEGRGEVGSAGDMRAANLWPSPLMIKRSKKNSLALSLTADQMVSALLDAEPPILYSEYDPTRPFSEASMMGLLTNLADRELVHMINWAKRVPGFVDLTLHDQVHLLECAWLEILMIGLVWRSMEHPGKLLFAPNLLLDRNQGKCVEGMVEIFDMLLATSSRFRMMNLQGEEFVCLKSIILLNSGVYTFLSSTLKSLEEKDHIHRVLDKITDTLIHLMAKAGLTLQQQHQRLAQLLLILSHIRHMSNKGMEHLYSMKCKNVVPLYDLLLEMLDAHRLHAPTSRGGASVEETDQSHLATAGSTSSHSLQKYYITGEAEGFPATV

ER-α In-Cell Western Assay (SP1): % ER-α remaining relative to Fulvestrant [2] | IC50 [1] | SMILES | MCF7 Viability Assay: % Viability relative to Fulvestrant [1] | IC50 [2] | Number of Tumors Smaller at t = 27 days than at Start of study (t = 0 days) ([3]; 10 mpk oral dose each day) | Number of Tumors Smaller at t = 27 days than at Start of study (t = 0 days) ([3]; 30 mpk oral dose each day) | Number of Tumors Smaller at t = 27 days than at Start of study (t = 0 days) ([3]; 100 mpk oral dose each day)
14% |  | CC1=C(c2cccc(O)c2)C(c2ccc(OCCN3CC(C)C3)cc2)Oc2ccc(O)cc21 (racemic) [Example 4, 3-(3-Hydroxyphenyl)-4-methyl-2-(4-(2-(3-methylazetidin-1-yl)ethoxy)phenyl)-2H-chromen-6-ol] | 13% |  |  |  | 
33% |  | CC1=C(c2cccc(O)c2)C(c2ccc(OC[C@H](C)N3CCC3)cc2)Oc2ccc(O)cc21 (stereo partly drawn) [2-(4-((S)-2-(azetidin-1-yl)propoxy)phenyl)-3-(3-hydroxyphenyl)-4-methyl-2H-chromen-6-ol] | 30% |  |  |  | 
 | 0.21 nM | CC1=C(c2cccc(O)c2)C(c2ccc(OCCN3CC(CF)C3)cc2)Oc2ccc(O)cc21 (racemic) [Example 1, (±)-2-(4-(2-(3-(Fluoromethyl)azetidin-1-yl)ethoxy)phenyl)-3-(3-hydroxyphenyl)-4-methyl-2H-chromen-6-ol] |  |  |  |  | 
8% |  | CC1=C(c2cccc(O)c2)C(c2ccc(OC[C@H](C)N3CC[C@@H](F)C3)cc2)Oc2ccc(O)cc21 (stereo partly drawn) [2-(4-((S)-2-((R)-3-fluoropyrrolidin-1-yl)propoxy)phenyl)-3-(3-hydroxyphenyl)-4-methyl-2H-chromen-6-ol] | 16% |  |  |  | 
 | 0.07 nM | CC1=C(c2cccc(O)c2)[C@H](c2ccc(OCCN3CC(CF)C3)cc2)Oc2ccc(O)cc21 [Example 3, (S)-2-(4-(2-(3-(fluoromethyl)azetidin-1-yl)ethoxy)phenyl)-3-(3-hydroxyphenyl)-4-methyl-2H-chromen-6-ol] |  |  | 0/5 | 2/8 | 5/8
 | 4.3 nM | CC1=C(c2cccc(O)c2)[C@@H](c2ccc(OCCN3CC(CF)C3)cc2)Oc2ccc(O)cc21 [Example 2, (R)-2-(4-(2-(3-(Fluoromethyl)azetidin-1-yl)ethoxy)phenyl)-3-(3-hydroxyphenyl)-4-methyl-2H-chromen-6-ol] |  |  |  |  | 
24% |  | CC1=C(c2cccc(O)c2)C(c2ccc(OCCN3CCC3)cc2)Oc2ccc(O)cc21 (centres unmarked) [2-(4-(2-(azetidin-1-yl)ethoxy)phenyl)-3-(3-hydroxyphenyl)-4-methyl-2H-chromen-6-ol] | 25% |  |  |  | 

SMILES | ER-α In-Cell Western Assay (SP1): % ER-α remaining relative to Fulvestrant [2] | IC50 [1] | MCF7 Viability Assay: % Viability relative to Fulvestrant [1] | IC50 [2] | Number of Tumors Smaller at t = 27 days than at Start of study (t = 0 days) ([3]; 10 mpk oral dose each day) | Number of Tumors Smaller at t = 27 days than at Start of study (t = 0 days) ([3]; 30 mpk oral dose each day) | Number of Tumors Smaller at t = 27 days than at Start of study (t = 0 days) ([3]; 100 mpk oral dose each day)
CC1=C(c2cccc(O)c2)[C@H](c2ccc(OC[C@H](C)N3CC[C@@H](C)C3)cc2)Oc2ccc(O)cc21 [(S)-3-(3-Hydroxyphenyl)-4-methyl-2-(4-((S)-2-((R)-3-methylpyrrolidin-1-yl)propoxy)phenyl)-2H-chromen-6-ol] |  | 0.13 nM | 8% | 0.11 nM | 0/8 | 1/8 | 1/8

Source: US10227334B2, “Estrogen receptor modulators and uses thereof” (Genentech, Inc., priority 2013, dated 2019)
